# Measurements as given in US11795460B2, “Compositions and methods for TTR gene editing and treating ATTR amyloidosis” (Intellia Therapeutics, Inc., priority 2017, dated 2023).
# Columns and labels:
# [1] = tested on: TTR; assay: TTR editing in HEK293_Cas9 cells transfected with dgRNAs (Table 4); assay type: cell-based, human; conditions: HEK293_Cas9 cells (constitutively express Spy Cas9) transfected with dgRNAs
# Method: HEK293 Cas9 cell line. The human embryonic kidney adenocarcinoma cell line HEK293 constitutively expressing Spy Cas9 (“HEK293_Cas9”) was cultured in DMEM media supplemented with 10% fetal bovine serum and 500 μg/ml G418. Cells were plated at a density of 10,000 cells/well in a 96-well plate 24 hours prior to transfection. Cells were transfected with Lipofectamine RNAiMAX (ThermoFisher, Cat. 13778150) per the manufacturer's protocol. Cells were transfected with a lipoplex containing individual crRNA (25 nM), trRNA (25 nM), Lipofectamine RNAiMAX (0.3 μL/well) and OptiMem.
# (§1) Transfected cells were harvested post-transfection at 24, 48, or 72 hours. The genomic DNA was extracted from each well of a 96-well plate using 50 μL/well BuccalAmp DNA Extraction solution (Epicentre, Cat. QE09050) per manufacturer's protocol. All DNA samples were subjected to PCR and subsequent NGS analyses, as described herein.
# (§2) To quantitatively determine the efficiency of editing at the target location in the genome, sequencing was utilized to identify the presence of insertions and deletions introduced by gene editing.
# (§3) Primers were designed around the target site within the gene of interest (e.g. TTR), and the genomic area of interest was amplified.
# (§4) Additional PCR was performed per the manufacturer's protocols (Illumina) to add chemistry for sequencing. The amplicons were sequenced on an Illumina MiSeq instrument. The reads were aligned to a reference genome (e.g., the human reference genome (hg38), the cynomologus reference genome (mf5), the rat reference genome (rn6), or the mouse reference genome (mm10)) after eliminating those having low quality scores. The resulting files containing the reads were mapped to the reference genome (BAM files), where reads that overlapped the target region of interest were selected and the number of wild type reads versus the number of reads which contain an insertion, substitution, or deletion was calculated.
# (§5) The editing percentage (e.g., the “editing efficiency” or “percent editing” or “indel frequency”) is defined as the total number of sequence reads with insertions/deletions (“indels”) or substitutions over the total number of sequence reads, including wild type.
# (§6) Guides in dgRNA format targeting human TTR and the cynomologus matched sequences were delivered to HEK293 Cas9, HUH7 and HepG2 cell lines, as well as primary human hepatocytes and primary cynomolgus monkey hepatocytes as described in Example 1. Percent editing was determined for crRNAs comprising each guide sequence across each cell type and the guide sequences were then rank ordered based on highest % edit. The screening data for the guide sequences in Table 1 in all five cell lines are listed below (Table 4 through 11).
# [2] = tested on: TTR; assay: TTR editing in HUH7 cells transfected with Spy Cas9 mRNA and dgRNAs (Table 5); assay type: cell-based, human; conditions: HUH7 cells co-transfected with Spy Cas9 mRNA (SEQ ID NO:2) and dgRNAs
# Method: HUH7 cell line. The human hepatocellular carcinoma cell line HUH7 (Japanese Collection of Research Bioresources Cell Bank, Cat. JCRB0403) was cultured in DMEM media supplemented with 10% fetal bovine serum. Cells were plated on at a density of 15,000 cells/well in a 96-well plate 20 hours prior to transfection. Cells were transfected with Lipofectamine MessengerMAX (ThermoFisher, Cat. LMRNA003) per the manufacturer's protocol. Cells were sequentially transfected with a lipoplex containing Spy Cas9 mRNA (100 ng), MessengerMAX (0.3 μL/well) and OptiMem followed by a separate lipoplex containing individual crRNA (25 nM), tracer RNA (25 nM), MessengerMAX (0.3 μL/well) and OptiMem.
# as §1, §2, §3, §4, §5, §6
# [3] = tested on: TTR; assay: TTR editing in HepG2 cells transfected with Spy Cas9 mRNA and dgRNAs (Table 6); assay type: cell-based, human; conditions: HepG2 cells co-transfected with Spy Cas9 mRNA (SEQ ID NO:2) and dgRNAs
# How it was run: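 HepG2 cells were transfected sequentially by lipofection with Spy Cas9 mRNA (100 ng), then crRNA plus tracer RNA (25 nM each), and harvested at 24, 48 or 72 h. Editing was measured by amplicon NGS at the TTR target site as the fraction of reads with indels or substitutions.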
# [4] = tested on: TTR; assay: TTR editing in primary human hepatocytes transfected with Spy Cas9 protein (RNP) loaded with dgRNAs (Table 8); assay type: cell-based; conditions: dgRNA transfected with Spy Cas9 protein (RNP)
# How it was run: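 Primary human hepatocytes were lipofected (RNAiMAX) with RNP of Spy Cas9 (10 nM) plus pre-annealed crRNA (10 nM) and trRNA (10 nM) and harvested 24, 48 or 72 h later. Target-site amplicons were sequenced on Illumina MiSeq and aligned to hg38; percent editing = reads with indels or substitutions over total reads.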
Sequence,Avg % Deletion [1] [%],Avg % Edit [1] [%],Avg % Insert [1] [%],Avg % Deletion [2] [%],Avg % Edit [2] [%],Avg % Insert [2] [%],Avg % Deletion [3] [%],Avg % Edit [3] [%],Avg % Insert [3] [%],Avg % Deletion [4] [%],Avg % Edit [4] [%],Avg % Insert [4] [%]
"AAGUGCCUUCCAGUAAGAUU (tested as dual guide RNA, chemistry not given here) [CR003368]",36.61,40.35,3.73,29.69,31.57,3.08,3.22,51.55,48.34,1.00,34.83,33.83
"GGCUGUCGUCACCAAUCCCA (tested as dual guide RNA, chemistry not given here) [CR003391]",44.19,44.81,0.61,59.70,61.31,2.10,0.50,48.78,48.28,0.26,34.72,34.46
"CCUCUGCAUGCUCAUGGAAU (tested as dual guide RNA, chemistry not given here) [CR003370]",29.73,34.22,4.49,35.55,39.16,4.83,3.62,28.51,24.88,1.26,20.06,18.80
"ACCUCUGCAUGCUCAUGGAA (tested as dual guide RNA, chemistry not given here) [CR003371]",21.76,25.60,3.84,35.65,40.47,6.07,1.84,15.91,14.07,1.57,18.80,17.23
"GCGGCAAUGGUGUAGCGGCG (tested as dual guide RNA, chemistry not given here) [CR003377]",21.99,24.70,2.71,29.89,34.93,5.59,1.02,16.30,15.29,0.31,12.77,12.45
"CCCAGAGGCAAAUGGCUCCC (tested as dual guide RNA, chemistry not given here) [CR003355]",23.61,30.60,6.99,30.31,38.83,9.40,3.44,15.80,12.36,1.42,19.11,17.69
"ACGUGUCUUCUCUACACCCA (tested as dual guide RNA, chemistry not given here) [CR005302]",,,,,,,2.29,33.21,30.93,0.97,48.29,47.32
"AAAUAGACACCAAAUCUUAC (tested as dual guide RNA, chemistry not given here) [CR003366]",37.26,47.36,10.10,50.32,69.98,20.77,8.49,54.69,46.20,4.79,42.74,37.95
"AAAGGCUGCUGAUGACACCU (tested as dual guide RNA, chemistry not given here) [CR003353]",21.32,25.03,3.71,62.87,69.18,7.73,3.68,60.40,56.71,2.16,61.54,59.38
"CCAGUCCAGCAAGGCAGAGG (tested as dual guide RNA, chemistry not given here) [CR003337]",37.48,42.72,5.24,48.95,55.72,8.34,2.65,61.93,59.28,1.88,49.43,47.54
"AUAGGAGUAGGGGCUCAGCA (tested as dual guide RNA, chemistry not given here) [CR003383]",15.35,40.47,25.12,41.19,42.89,2.14,0.16,6.35,6.19,0.24,4.76,4.52
"GCAACUUACCCAGAGGCAAA (tested as dual guide RNA, chemistry not given here) [CR003356]",22.19,32.21,10.03,31.31,49.63,18.98,3.72,9.39,5.67,1.29,7.53,6.24
"GUCACAGAAACACUCACCGU (tested as dual guide RNA, chemistry not given here) [CR005301]",,,,,,,3.65,37.04,33.39,1.84,31.37,29.53
"CCCCUACUCCUAUUCCACCA (tested as dual guide RNA, chemistry not given here) [CR003385]",18.82,26.19,7.36,,,,7.62,53.94,46.32,3.00,41.15,38.15
"UGAAUCCAAGUGUCCUCUGA (tested as dual guide RNA, chemistry not given here) [CR005303]",,,,,,,1.08,21.63,20.55,0.39,36.45,36.06
